Measurements published in patent US20260191968A1, “PROTAC DEGRADERS OF MLLT1 AND/OR MLLT3” (DARK BLUE THERAPEUTICS LTD, priority 2024, published 2026).

Target: T1, MLLT1 (Homo sapiens, UniProt Q03111)
T1 construct: host or cells: MV4-11
T1 sequence (Q03111 1-559): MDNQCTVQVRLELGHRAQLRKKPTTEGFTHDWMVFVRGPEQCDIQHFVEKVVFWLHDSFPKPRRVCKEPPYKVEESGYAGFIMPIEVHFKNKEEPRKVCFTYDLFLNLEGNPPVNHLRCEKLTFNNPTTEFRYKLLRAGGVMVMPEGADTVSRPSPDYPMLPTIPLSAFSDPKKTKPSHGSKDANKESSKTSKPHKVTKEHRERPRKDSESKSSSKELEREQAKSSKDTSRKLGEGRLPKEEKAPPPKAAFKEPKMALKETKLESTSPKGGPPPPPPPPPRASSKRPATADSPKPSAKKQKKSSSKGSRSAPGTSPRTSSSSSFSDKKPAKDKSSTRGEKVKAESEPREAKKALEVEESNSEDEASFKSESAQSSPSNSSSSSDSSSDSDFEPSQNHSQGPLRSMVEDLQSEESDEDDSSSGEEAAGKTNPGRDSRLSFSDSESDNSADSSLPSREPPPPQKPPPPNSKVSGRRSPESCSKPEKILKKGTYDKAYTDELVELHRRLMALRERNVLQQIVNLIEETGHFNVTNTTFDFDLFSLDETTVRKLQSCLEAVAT
Test: MLLT1 degradation assay in MV4-11 cells (JESS chemiluminescent detection), three concentrations, 24 h
Assay type: cell-based
Settings: with respect to DMSO control
Protocol: MLLT1 degradation efficacy of compounds were tested in an automated chemiluminescent detection system (JESS, Cat #004-650). […] 10 mM DMSO stocks were prepared, and cells were treated with three concentrations of test compounds viz. 1000, 100 and 10 nM at a final DMSO concentration of 0.1% and incubated for 24 h at 37° C., 5% CO2. […] Post run, data were analysed using “Compass for SW” software for chemiluminescent detection. The peak area for each band was used for the calculation of MLLT1 degradation with respect to DMSO control. Data is shown as “MLLT1% degradation”.

Compound	MLLT1% Degradation @ 0.01 μM	MLLT1% Degradation @ 0.1 μM	MLLT1% Degradation @ 1 μM
CN1CCC[C@@H]1c1cc2cnc(NC(=O)c3ccc(OCCN4CCC5(CC4)CCN(c4ccc6c(c4)C(=O)N(C4CCC(=O)NC4=O)C6=O)CC5)cc3)cc2[nH]1 (stereo partly drawn) [Example 166, 4-(2-(9-(2-(2,6-dioxopiperidin-3-yl)-1,3-dioxoisoindolin-5-yl)-3,9-diazaspiro[5.5]undecan-3-yl)ethoxy)-N-(2-((R)-1-methylpyrrolidin-2-yl)-1H-pyrrolo[3,2-c]pyridin-6-yl)benzamide]	C (Category C: 25% ≤ C < 50% degradation)	A (Category A: A ≥ 75% degradation)	A (Category A: A ≥ 75% degradation)
CN1CCC[C@@H]1c1cc2cnc(NC(=O)c3ccc(-c4cnn(CCCC#Cc5cccc(C(=O)N[C@H]6CCC(=O)NC6=O)n5)c4)cc3)cc2[nH]1 [Example 62, N—((S)-2,6-dioxopiperidin-3-yl)-6-(5-(4-(4-((2-((R)-1-methylpyrrolidin-2-yl)-1H-pyrrolo[3,2-c]pyridin-6-yl)carbamoyl)phenyl)-1H-pyrazol-1-yl)pent-1-yn-1-yl) picolinamide]	B (Category B: 50% ≤ B < 75% degradation)	A (Category A: A ≥ 75% degradation)	B (Category B: 50% ≤ B < 75% degradation)
CN1CCC[C@@H]1c1cc2cnc(NC(=O)c3ccc(N4CCN(CC5CCN(c6cccc(C(=O)N[C@H]7CCC(=O)NC7=O)n6)CC5)CC4)cc3)cc2[nH]1 [Example 182, N—((S)-2,6-dioxopiperidin-3-yl)-6-(4-((4-(4-((2-((R)-1-methylpyrrolidin-2-yl)-1H-pyrrolo[3,2-c]pyridin-6-yl)carbamoyl)phenyl)piperazin-1-yl)methyl)piperidin-1-yl)picolinamide]	C (Category C: 25% ≤ C < 50% degradation)	B (Category B: 50% ≤ B < 75% degradation)	B (Category B: 50% ≤ B < 75% degradation)
CN1CCC[C@@H]1c1cc2cnc(NC(=O)c3ccc(OCC4CC5(CCN(c6cccc7c6CN(C6CCC(=O)NC6=O)C7=O)CC5)C4)cc3F)cc2[nH]1 (stereo partly drawn) [Example 201, 4-((7-(2-(2,6-dioxopiperidin-3-yl)-1-oxoisoindolin-4-yl)-7-azaspiro[3.5]nonan-2-yl)methoxy)-2-fluoro-N-(2-((R)-1-methylpyrrolidin-2-yl)-1H-pyrrolo[3,2-c]pyridin-6-yl)benzamide]	B (Category B: 50% ≤ B < 75% degradation)	A (Category A: A ≥ 75% degradation)	A (Category A: A ≥ 75% degradation)
CN1CCC[C@@H]1c1cc2cnc(NC(=O)c3ccc(CCCC#Cc4ccc5c(c4)C(=O)N(C4CCC(=O)NC4=O)C5)cc3)cc2[nH]1 (stereo partly drawn) [Example 225, 4-(5-(2-(2,6-dioxopiperidin-3-yl)-3-oxoisoindolin-5-yl)pent-4-yn-1-yl)-N-(2-((R)-1-methylpyrrolidin-2-yl)-1H-pyrrolo[3,2-c]pyridin-6-yl)benzamide]	C (Category C: 25% ≤ C < 50% degradation)	C (Category C: 25% ≤ C < 50% degradation)	C (Category C: 25% ≤ C < 50% degradation)
CN1CCC[C@@H]1c1cc2cnc(NC(=O)c3ccc(OCCC4CCN(c5cccc6c5CN(C5CCC(=O)NC5=O)C6=O)CC4)cc3F)cc2[nH]1 (stereo in doubt) [Example 173, 4-(2-(1-(2-((rel-R)-2,6-dioxopiperidin-3-yl)-1-oxoisoindolin-4-yl)piperidin-4-yl)ethoxy)-2-fluoro-N-(2-((R)-1-methylpyrrolidin-2-yl)-1H-pyrrolo[3,2-c]pyridin-6-yl)benzamide]	B (Category B: 50% ≤ B < 75% degradation)	A (Category A: A ≥ 75% degradation)	A (Category A: A ≥ 75% degradation)
CN1CCC[C@@H]1c1cc2cnc(NC(=O)c3ccc(N4CCC(OC5CCN(c6cccc7c6C(=O)N(C6CCC(=O)NC6=O)C7=O)CC5)CC4)cc3)cc2[nH]1 (stereo partly drawn) [Example 136, 4-(4-((1-(2-(2,6-dioxopiperidin-3-yl)-1,3-dioxoisoindolin-4-yl)piperidin-4-yl)oxy)piperidin-1-yl)-N-(2-((R)-1-methylpyrrolidin-2-yl)-1H-pyrrolo[3,2-c]pyridin-6-yl)benzamide]	C (Category C: 25% ≤ C < 50% degradation)	B (Category B: 50% ≤ B < 75% degradation)	B (Category B: 50% ≤ B < 75% degradation)
CN1CCC[C@@H]1c1cc2cnc(NC(=O)c3ccc(N4CCC(c5ccc(-c6cccc7c6C(=O)N(C6CCC(=O)NC6=O)C7=O)cc5)CC4)nc3)cc2[nH]1 (stereo partly drawn) [Example 178, 6-(4-(4-(2-(2,6-dioxopiperidin-3-yl)-1,3-dioxoisoindolin-4-yl)phenyl)piperidin-1-yl)-N-(2-((R)-1-methylpyrrolidin-2-yl)-1H-pyrrolo[3,2-c]pyridin-6-yl)nicotinamide]	C (Category C: 25% ≤ C < 50% degradation)	B (Category B: 50% ≤ B < 75% degradation)	B (Category B: 50% ≤ B < 75% degradation)
CN1CCC[C@@H]1c1cc2cnc(NC(=O)c3ccc(CCC#Cc4cccc5c4CN(C4CCC(=O)NC4=O)C5=O)cn3)cc2[nH]1 (stereo partly drawn) [Example 49, 5-(4-(2-(2,6-dioxopiperidin-3-yl)-1-oxoisoindolin-4-yl)but-3-yn-1-yl)-N-(2-((R)-1-methylpyrrolidin-2-yl)-1H-pyrrolo[3,2-c]pyridin-6-yl)picolinamide]	D (Category D: D < 25% degradation)	D (Category D: D < 25% degradation)	C (Category C: 25% ≤ C < 50% degradation)
CN1CCC[C@@H]1c1cc2cnc(NC(=O)c3ccc(N4CCC(C#Cc5cccc6c5CN(C5CCC(=O)NC5=O)C6=O)CC4)nn3)cc2[nH]1 (stereo partly drawn) [Example 185, 6-(4-((2-(2,6-dioxopiperidin-3-yl)-1-oxoisoindolin-4-yl)ethynyl)piperidin-1-yl)-N-(2-((R)-1-methylpyrrolidin-2-yl)-1H-pyrrolo[3,2-c]pyridin-6-yl)pyridazine-3-carboxamide]	C (Category C: 25% ≤ C < 50% degradation)	B (Category B: 50% ≤ B < 75% degradation)	B (Category B: 50% ≤ B < 75% degradation)
CN1CCC[C@@H]1c1cc2cnc(NC(=O)c3ccc(N4CCN(CC5CCN(c6ccc7c(c6)C(=O)N(C6CCC(=O)NC6=O)C7=O)CC5)CC4)cc3)cc2[nH]1 (stereo partly drawn) [Example 221, 4-(4-((1-(2-(2,6-dioxopiperidin-3-yl)-1,3-dioxoisoindolin-5-yl)piperidin-4-yl)methyl)piperazin-1-yl)-N-(2-((R)-1-methylpyrrolidin-2-yl)-1H-pyrrolo[3,2-c]pyridin-6-yl)benzamide]	C (Category C: 25% ≤ C < 50% degradation)	B (Category B: 50% ≤ B < 75% degradation)	B (Category B: 50% ≤ B < 75% degradation)
CN1CCC[C@@H]1c1cc2cnc(NC(=O)c3ccc(N4CCC5(CC4)CCN(c4cccc6c4CN(C4CCC(=O)NC4=O)C6=O)CC5)cc3F)cc2[nH]1 (stereo partly drawn) [Example 202, 4-(9-(2-(2,6-dioxopiperidin-3-yl)-1-oxoisoindolin-4-yl)-3,9-diazaspiro[5.5]undecan-3-yl)-2-fluoro-N-(2-((R)-1-methylpyrrolidin-2-yl)-1H-pyrrolo[3,2-c]pyridin-6-yl)benzamide]	D (Category D: D < 25% degradation)	C (Category C: 25% ≤ C < 50% degradation)	C (Category C: 25% ≤ C < 50% degradation)
CN1CCC[C@@H]1c1cc2cnc(NC(=O)c3cccc(OCCCCCCCC#Cc4cccc5c4C(=O)N(C4CCC(=O)NC4=O)C5=O)c3)cc2[nH]1 (stereo partly drawn) [Example 26, 3-((9-(2-(2,6-dioxopiperidin-3-yl)-1,3-dioxoisoindolin-4-yl)non-8-yn-1-yl)oxy)-N-(2-((R)-1-methylpyrrolidin-2-yl)-1H-pyrrolo[3,2-c]pyridin-6-yl)benzamide]	D (Category D: D < 25% degradation)	D (Category D: D < 25% degradation)	C (Category C: 25% ≤ C < 50% degradation)
CN1CCC[C@@H]1c1cc2cnc(NC(=O)c3ccc(N4CCC(OCC5CCN(c6ccc7c(c6)CN(C6CCC(=O)NC6=O)C7=O)CC5)CC4)nc3)cc2[nH]1 (stereo partly drawn) [Example 228, 6-(4-((1-(2-(2,6-dioxopiperidin-3-yl)-1-oxoisoindolin-5-yl)piperidin-4-yl)methoxy)piperidin-1-yl)-N-(2-((R)-1-methylpyrrolidin-2-yl)-1H-pyrrolo[3,2-c]pyridin-6-yl)nicotinamide]	C (Category C: 25% ≤ C < 50% degradation)	D (Category D: D < 25% degradation)	D (Category D: D < 25% degradation)
